# Tests used:
# [1] = system: DG44-EPO, a CHO cell line expressing recombinant erythropoietin; test: Cell culture potency of ethanolamine derivatives (viable cell density); assay type: cell-based, Chinese hamster; details: for Multiple of the ethanolamine molar equivalent yielding similar growth potential to ethanolamine: FIGS. 1A and 1B, titered up to 64× of a molar equivalent, viable cell density followed for 8 days
# Description: We tested a range of ethanolamine derivatives for cell culture potency, including phosphorylethanolamine (PE), triethanolamine (TE), diethanolamine (DE), monomethylethanolamine (MME), dimethylethanolamine (DME), and N-acetylethanolaine (NAE). […] The cell line used was DG44-EPO, a CHO cell line expressing recombinant erythropoietin, that requires ethanolamine for good growth. Cells were inoculated at 3×10^5/ml and cultured bi-weekly for 3 subpassages in each condition prior to starting the assay. The assay was also inoculated at 3×10^5/ml but followed for 8 days for viable cell density from a ViCell cell counter.
# Next we titered the compounds up to 64× of a molar equivalent. Both phoshorylethanolamine and NAE at about 16× the molar equivalent yielded similar growth potential to ethanolamine. In another set of experiments, NAE at about 16× the ethanolamine molar equivalent was again shown to be able to supplement an ethanolamine-sensitive line as well as ethanolamine. These latter experiments were performed in 24 well culture trays. Cells were inoculated at 1×10^5/ml and samples harvested at day 12. Because the nitrogen atom in NAE is contained within an amide structure, it is expected that NAE should be stable and can be used in place of ethanolamine in cell culture media.
# The negative control is without ethanolamine. The line way above the rest should be disregarded—it is a CD CHO catalogue control, not relevant to this assay.
# [2] = Microbeads protection studies during real-time ambient storage in AGT media (FIG. 8); assay type: physicochemical; details: FIG. 8, AGT media, ambient conditions
# Description: FIG. 8: Microbeads protection studies during real-time ambient storage.
# HeLa cells = test: HeLa cell growth with insulin-dendrimer-RGD conjugate, microencapsulated or not (FIG. 7B); assay type: cell-based; details: for Potency and growth characteristics of HeLa cells: FIG. 7B
# Description: FIG. 7B: Impact of microencapsulation of the insulin-dendrimer-RGD covalent conjugate on the growth of HeLa cell Growth.
# [3] = Stability of insulin / insulin-dendrimer with and without alginate microencapsulation (FIG. 7A, FIG. 10); assay type: physicochemical
# Description: Further examples for microencapsulating labile compounds other than ethanolamine are shown below. A sequestering agent like alginate was used to encapsulate or embed a dendrimer-insulin complex. The labile compound insulin was polymerized with PAMAM dendrimer, and further microencapsulated in alginate microbeads with or without PLL. Briefly, for dendrimer generation, PAMAM 2.5 (carboxylate surface groups) was used. Insulin was conjugated onto the dendrimer to which RGD sequences were also added to target the cell surface. The ratios of components in this complex was dendrimer:RGD:insulin=1:7:12.
# Concentration of conjugate and alginate was adjusted as on attachment. Next conjugate was added to the alginate and mixed several minutes to distribute evenly. It was dripped through a 26 gauge needle using a 1 ml syringe into a calcium chloride bath (13.32 g/L). It was left to incubate for 30 minutes to solidify microcapsules. Then rinsed 1× in a solution also containing the dendrimer conjugate to prevent loss of component from the microcapsules. Then dried overnight in a vacuum over dessicant. The loaded microbeads were then added to AGT dry-format medium or used by adding directly into a liquid medium.
# The insulin concentration of the dendrimer-insulin-RGD conjugate was estimated to be ˜2 mg/ml (pg 165/168). It needed to be diluted in half to get to ˜1 mg/ml (1000 μg/ml). […]
compound,measurement,setting,value
"CC(=O)NCCO [NAE, N-acetylethanolamine]",Higher concentration needed to perform in a cell growth assay comparable to ethanolamine,[1]; FIG. 2A (Example 2),8-12 fold
same,Multiple of the ethanolamine molar equivalent able to supplement an ethanolamine-sensitive line comparable to ethanolamine,[1]; FIG. 2A cell growth titration assay (figure legend),16-20 ×
same,Multiple of the ethanolamine molar equivalent yielding similar growth potential to ethanolamine,[1],about 16 ×
same,Multiple of the ethanolamine molar equivalent able to supplement an ethanolamine-sensitive line as well as ethanolamine,"[1]; another set of experiments, 24 well culture trays, harvested at day 12",about 16 ×
"NCCO [Unencapsulated ethanolamine, ethanolamine]",Ethanolamine potency (activity) during ambient storage,[2],drops quickly
same,Ethanolamine potency (activity) during ambient storage,[2]; listed as unprotected ethanolamine,dropped quickly
"NCCOP(=O)(O)O [phoshorylethanolamine, phosphorylethanolamine]",Multiple of the ethanolamine molar equivalent yielding similar growth potential to ethanolamine,[1],about 16 ×
alginate,Inhibition of / interference with viability or growth of HeLa cells,HeLa cells,did not interfere with viability or growth of Hela cells
insulin [insulin alone],Potency and growth characteristics of HeLa cells,HeLa cells,equivalent potency and growth characteristics of HeLa cells
"unencapsulated dendrimer (with insulin): insulin conjugated onto PAMAM 2.5 dendrimer with RGD sequences, dendrimer:RGD:insulin=1:7:12, not encapsulated",Potency of insulin at 4° C.,[3],comparable to that of insulin alone
same,Potency and growth characteristics of HeLa cells,HeLa cells,equivalent potency and growth characteristics of HeLa cells

# From US11028361B2, “Compositions and methods for stabilizing susceptible compounds” (LIFE TECHNOLOGIES CORPORATION, priority 2011, dated 2021)
